Reference: US9518055B2, “Imidazopyridyl compounds as aldosterone synthase inhibitors” (Merck Sharp & Dohme Corp., priority 2011, dated 2016)

Assays:
[1] = biological target: human CYP11B2 (Homo sapiens (Human), UniProt P19099); experiment: V79-Human-CYP11B2 cell assay; format: cell-based; details: V79 cells stably expressing human CYP11B2; 125 nM 11-deoxycorticosterone substrate; aldosterone measured by HTRF
Protocol: (§1) Methods for V79-Human-CYP11B2 and V79-Human-CYP11B1 Assays:
(§2) V79 cell lines stably expressing the either the human CYP11B2 or the human CYP11B1 enzyme were generated using a standard transfection protocol. V79 cells were transfected with plasmids pTriEx3-Hygro-hCyp11B2 or pTriEx3-Hygro-hCyp11B1 using Lipofectamine2000 reagent. V79 cells that stably express the human CYP11B2 or human CYP11B1 enzyme were selected for and maintained in DMEM supplemented with 10% FBS and 400 μg/mL hygromycin for ˜2 weeks. Single cell clones were generated by […] in DMEM supplemented with 10% FBS and 400 μg/mL hygromycin until single colonies were obtained. […] For testing of inhibitors, cells were harvested at 80% confluency with 0.5% Trypsan-EDTA, washed once in PBS, and reconstituted in DMEM+0.1% BSA media at a cell concentration of 600,000 cells/mL for the CYP11B2 assay and 280,000 cells/mL for the CYP11B1 assay. 25 μL of cells were added to a 384 well tissue culture treated plate and mixed with 0.3 μL of inhibitor or DMSO (1% final DMSO concentration) for 1 hour at 37° C., 5% CO2. […] The reaction was carried out for 3 hours at 37° C., 5% CO2 and was stopped by harvesting the supernatants. The amount of product in the supernatant (aldosterone for CYP11B2 assay and cortisol for the CYP11B1 assay) was measured using HTRF-based assay kit (Aldosterone HTRF-CisBio#64ALDPEB, Cortisol HTRF-CisBio #63IDC002-CORT). IC50s for the inhibitor were determined by plotting the amount of product formed against the concentration of inhibitor using sigmoidal dose-response curve (variable slope) fit in GraphPad.

[2] = biological target: human CYP11B1 (Homo sapiens (Human), UniProt P15538); experiment: V79-Human-CYP11B1 cell assay; format: cell-based; details: for IC50: V79 cells stably expressing human CYP11B1, 250 nM 11-deoxycortisol substrate, cortisol measured by HTRF; for inhibition at 10 µM: starred values of the CYP11B1 column
Sequence of human CYP11B1 (P15538 25-503): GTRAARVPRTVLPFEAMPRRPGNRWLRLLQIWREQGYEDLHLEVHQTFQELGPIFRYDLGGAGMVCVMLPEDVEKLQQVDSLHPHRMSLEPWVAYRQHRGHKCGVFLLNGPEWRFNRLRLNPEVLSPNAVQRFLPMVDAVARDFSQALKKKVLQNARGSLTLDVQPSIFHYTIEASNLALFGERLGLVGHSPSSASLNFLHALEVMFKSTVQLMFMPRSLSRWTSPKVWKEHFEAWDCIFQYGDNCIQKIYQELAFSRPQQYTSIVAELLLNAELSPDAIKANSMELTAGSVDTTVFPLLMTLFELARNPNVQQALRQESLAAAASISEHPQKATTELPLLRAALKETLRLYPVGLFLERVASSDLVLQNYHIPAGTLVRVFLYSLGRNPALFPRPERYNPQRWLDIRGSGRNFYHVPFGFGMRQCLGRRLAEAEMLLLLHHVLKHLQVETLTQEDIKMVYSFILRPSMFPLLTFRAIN
Protocol: as §1, §2

Sequence of human CYP11B2 (P19099 25-503): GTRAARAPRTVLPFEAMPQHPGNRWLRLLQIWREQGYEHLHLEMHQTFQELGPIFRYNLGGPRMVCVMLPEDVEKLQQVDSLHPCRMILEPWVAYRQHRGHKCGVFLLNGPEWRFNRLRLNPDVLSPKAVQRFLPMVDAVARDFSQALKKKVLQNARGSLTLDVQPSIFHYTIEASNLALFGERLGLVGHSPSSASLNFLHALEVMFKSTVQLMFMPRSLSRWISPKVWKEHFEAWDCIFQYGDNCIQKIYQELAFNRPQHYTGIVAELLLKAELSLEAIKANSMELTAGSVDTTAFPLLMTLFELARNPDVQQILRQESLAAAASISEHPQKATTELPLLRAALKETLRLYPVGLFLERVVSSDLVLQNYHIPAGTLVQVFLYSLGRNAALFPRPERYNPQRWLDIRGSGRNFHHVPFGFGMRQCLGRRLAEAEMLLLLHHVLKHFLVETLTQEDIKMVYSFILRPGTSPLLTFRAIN

IC50 [1] [nM] | IC50 [2] [nM] | inhibition at 10 µM [2] [%] | SMILES
0.3 | 32.4 |  | COc1cncc(-c2nc3ccc(F)cn3c2C)c1 [Example 18, 6-fluoro-3-methyl-2-(5-methoxypyridin-3-yl)imidazo[1,2-a]pyridine]
22.4 |  | 63 | Cc1ccncc1-c1cn2cc(F)ccc2n1 [Example 6, 6-fluoro-2-(4-methylpyridin-3-yl)imidazo[1,2-a]pyridine]
0.1 | 14.8 |  | Cc1c(-c2cncc3ccccc23)nc2ccc(F)cn12 [Example 25]
2.2 | 135 |  | Cc1ccncc1-c1nc2ccc(F)cn2c1C [Example 20, 6-fluoro-3-methyl-2-(4-methylpyridin-3-yl)imidazo[1,2-a]pyridine]
0.45 | 40.7 |  | Cc1cncc(-c2nc3ccc(F)cn3c2C)c1 [Example 19, 6-fluoro-3-methyl-2-(5-methylpyridin-3-yl)imidazo[1,2-a]pyridine]
4.7 | 912 |  | Cc1c(-c2cncc(F)c2)nc2cc(F)ccn12 [Example 26, 7-fluoro-2-(5-fluoropyridin-3-yl)-3-methylimidazo[1,2-a]pyridine]
56.2 |  | 60 | Cc1cncc(-c2cn3cc(F)ccc3n2)c1 [Example 7, 6-fluoro-2-(5-methylpyridin-3-yl)imidazo[1,2-a]pyridine]
